pIC50: −log10 of the molar value.
The compounds below were run against Factor D (Homo sapiens (Human), UniProt P00746) (assay: biochemical). Settings: read-out: IC50.
Format: biochemical

Sequence of Factor D (P00746 26-253): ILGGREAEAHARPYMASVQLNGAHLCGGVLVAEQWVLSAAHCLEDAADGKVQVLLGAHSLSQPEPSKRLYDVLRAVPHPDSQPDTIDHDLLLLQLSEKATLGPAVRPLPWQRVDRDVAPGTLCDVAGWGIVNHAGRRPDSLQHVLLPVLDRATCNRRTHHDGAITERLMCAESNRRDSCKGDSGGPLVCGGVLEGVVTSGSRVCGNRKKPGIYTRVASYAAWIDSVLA

SMILES	pIC50
NC(=O)n1cc(NC(=O)N2CCS[C@H]2C(=O)NCc2cccc(Cl)c2F)c2cc(F)ccc21 [Example 264, (S)-Thiazolidine-2,3-dicarboxylic acid 3-[(1-carbamoyl-5-fluoro-1H-indol-3-yl)-amide] 2-(3-chloro-2-fluoro-benzylamide)]	8.00
NC(=O)n1cc(NC(=O)N2CCS[C@H]2C(=O)Nc2cccc(OC(F)(F)F)c2)c2ccccc21 [Example 267, (S)-Thiazolidine-2,3-dicarboxylic acid 3-[(1-carbamoyl-1H-indol-3-yl)-amide] 2-[(3-trifluoromethoxy-phenyl)-amide]]	7.08
C=CCOc1ccc2c(c1)c(NC(=O)N1[C@@H]3C[C@@H]3C[C@H]1C(=O)NCc1cccc(Cl)c1F)cn2C(N)=O [Example 268, (1R,3S,5R)-2-Aza-bicyclo[3.1.0]hexane-2,3-dicarboxylic acid 2-[(5-allyloxy-1-carbamoyl-1H-indol-3-yl)-amide] 3-(3-chloro-2-fluoro-benzylamide)]	8.10
Cc1ccc2c(NC(=O)N3CCC[C@H]3C(=O)Nc3cccc(OC(F)(F)F)c3)cn(C(N)=O)c2c1 [Example 269]	5.80
CNC(=O)n1cc(NC(=O)N2[C@@H]3C[C@@H]3C[C@H]2C(=O)N[C@H](COC)c2cccc(Cl)c2F)c2ccccc21 [Example 270, (1R,3S,5R)-2-Aza-bicyclo[3.1.0]hexane-2,3-dicarboxylic acid 3-{[(S)-1-(3-chloro-2-fluoro-phenyl)-2-methoxy-ethyl]-amide} 2-[(1-methylcarbamoyl-1H-indol-3-yl)-amide]]	7.27
CC(=O)n1cc(NC(=O)N2CCC[C@H]2C(=O)Nc2cccc(OC(F)(F)F)c2)c2ccccc21 [Example 271, (S)-Pyrrolidine-1,2-dicarboxylic acid 1-[(1-acetyl-1H-indol-3-yl)-amide] 2-[(3-trifluoromethoxy-phenyl)-amide]]	6.20
NC(=O)n1cc(NC(=O)N2[C@@H](c3ccccc3)CC[C@H]2C(=O)Nc2cccc(OC(F)(F)F)c2)c2ccccc21 [Example 273, (2S,5R)-5-Phenyl-pyrrolidine-1,2-dicarboxylic acid 1-[(1-carbamoyl-1H-indol-3-yl)-amide] 2-[(3-trifluoromethoxy-phenyl)-amide]]	5.65
NC(=O)n1cc(NC(=O)N2C[C@H](F)C[C@H]2C(=O)Nc2cccc(OC(F)(F)F)c2F)c2ccccc21 [Example 274, (2S,4R)-4-Fluoro-pyrrolidine-1,2-dicarboxylic acid 1-[(1-carbamoyl-1H-indol-3-yl)-amide] 2-[(2-fluoro-3-trifluoromethoxy-phenyl)-amide]]	7.85
CC(=O)n1cc(NC(=O)N2[C@H](C(=O)NCc3cccc(Cl)c3F)C[C@@]3(CO)C[C@@H]23)c2ccccc21 [Example 275, (1R,3S,5S)-5-Hydroxymethyl-2-aza-bicyclo[3.1.0]hexane-2,3-dicarboxylic acid 2-[(1-acetyl-1H-indol-3-yl)-amide] 3-(3-chloro-2-fluoro-benzylamide)]	7.52
COC(=O)COc1ccc2c(NC(=O)N3[C@@H]4C[C@@H]4C[C@H]3C(=O)Nc3cccc(OC(F)(F)F)c3)cn(C(N)=O)c2c1 [Example 276, (1-Carbamoyl-3-{[(1R,3S,5R)-3-(3-trifluoromethoxy-phenylcarbamoyl)-2-aza-bicyclo[3.1.0]hexane-2-carbonyl]-amino}-1H-indol-6-yloxy)-acetic acid methyl ester]	5.88
CN(C)C(=O)c1cc(Cl)c(F)c(CNC(=O)[C@@H]2C[C@@H](F)CN2C(=O)Nc2cn(C(N)=O)c3ccccc23)c1 [Example 277, (2S,4R)-4-Fluoro-pyrrolidine-1,2-dicarboxylic acid 1-[(1-carbamoyl-1H-indol-3-yl)-amide] 2-(3-chloro-5-dimethylcarbamoyl-2-fluoro-benzylamide)]	6.20
Cn1nc(C(C)(C)C)cc1NC(=O)[C@@H]1CCCN1C(=O)Nc1cn(C(N)=O)c2ccccc12 [Example 279, (S)-Pyrrolidine-1,2-dicarboxylic acid 2-[(5-tert-butyl-2-methyl-2H-pyrazol-3-yl)-amide] 1-[(1-carbamoyl-1H-indol-3-yl)-amide]]	5.54
C=CCOc1ccc2c(NC(=O)N3C[C@H](F)C[C@H]3C(=O)NCc3cccc(Cl)c3F)cn(C(N)=O)c2c1 [Example 280, (2S,4R)-4-Fluoro-pyrrolidine-1,2-dicarboxylic acid 1-[(6-allyloxy-1-carbamoyl-1H-indol-3-yl)-amide] 2-(3-chloro-2-fluoro-benzylamide)]	6.60
CC(=O)n1cc(NC(=O)N2[C@@H]3C[C@@H]3C[C@H]2C(=O)N[C@H](CN(C)C)c2cccc(Cl)c2F)c2ccccc21 [Example 281, (1R,3S,5R)-2-Aza-bicyclo[3.1.0]hexane-2,3-dicarboxylic acid 2-[(1-acetyl-1H-indol-3-yl)-amide] 3-{[(S)-1-(3-chloro-2-fluoro-phenyl)-2-dimethylamino-ethyl]-amide}]	7.74
CNC(=O)n1cc(NC(=O)N2CCC[C@H]2C(=O)Nc2cccc(OC(F)(F)F)c2)c2ccccc21 [Example 282, (S)-Pyrrolidine-1,2-dicarboxylic acid 1-[(1-methylcarbamoyl-1H-indol-3-yl)-amide] 2-[(3-trifluoromethoxy-phenyl)-amide]]	5.43
NC(=O)n1cc(NC(=O)N2CC[C@@H](O)[C@H]2C(=O)NCc2cnc(Cl)s2)c2ccccc21 [Example 283, (2S,3R)-3-Hydroxy-pyrrolidine-1,2-dicarboxylic acid 1-[(1-carbamoyl-1H-indol-3-yl)-amide] 2-[(2-chloro-thiazol-5-ylmethyl)-amide]]	6.05
CNC(=O)n1cc(NC(=O)N2[C@H](C(=O)NCc3cccc(Cl)c3F)C[C@@]3(COC)C[C@@H]23)c2ccccc21 [Example 284, (1R,3S,5S)-5-Methoxymethyl-2-aza-bicyclo[3.1.0]hexane-2,3-dicarboxylic acid 3-(3-chloro-2-fluoro-benzylamide) 2-[(1-methylcarbamoyl-1H-indol-3-yl)-amide]]	6.54
CC(C)c1cccc(NC(=O)[C@@H]2C[C@H]3C[C@H]3N2C(=O)Nc2cn(C(N)=O)c3ccccc23)c1 [Example 285, (1R,3S,5R)-2-Aza-bicyclo[3.1.0]hexane-2,3-dicarboxylic acid 2-[(1-carbamoyl-1H-indol-3-yl)-amide] 3-[(3-isopropyl-phenyl)-amide]]	7.26
NC(=O)n1cc(NC(=O)N2CCC[C@H]2C(=O)Nc2cccc(OC(F)(F)F)c2)c2ccc(Br)cc21 [Example 286, (S)-Pyrrolidine-1,2-dicarboxylic acid 1-[(6-bromo-1-carbamoyl-1H-indol-3-yl)-amide] 2-[(3-trifluoromethoxy-phenyl)-amide]]	5.58
CNC(=O)n1cc(NC(=O)N2[C@@H]3C[C@@H]3C[C@H]2C(=O)N[C@H](CO)c2cccc(Cl)c2F)c2ccccc21 [Example 287, (1R,3S,5R)-2-Azabicyclo[3.1.0]hexane-2,3-dicarboxylic acid 3-{[(S)-1-(3-chloro-2-fluoro-phenyl)-2-hydroxy-ethyl]-amide}2-[(1-methylcarbamoyl-1H-indol-3-yl)-amide]]	6.95
CCc1ccc2c(NC(=O)N3CCC[C@H]3C(=O)Nc3cccc(OC(F)(F)F)c3)cn(C(N)=O)c2c1 [Example 288, (S)-Pyrrolidine-1,2-dicarboxylic acid 1-[(1-carbamoyl-6-ethyl-1H-indol-3-yl)-amide] 2-[(3-trifluoromethoxy-phenyl)-amide]]	5.96

— US9085555B2, “Complement pathway modulators and uses thereof” (priority 2011, dated 2015)
